Measurements: the kinase profiling compilation of Christmann-Franck et al. (2016)
Blank lines part the entries; values can stand above or below the molecule they belong to.

How the values were obtained:
Assay in all cases: radiometric filter-binding kinase assay
ABL1 (human) = ABL1 (human) (UniProt P00519)
EIF2AK3 (human) = EIF2AK3 (human) (UniProt Q9NZJ5)
IRAK1 (human) = IRAK1 (human) (UniProt P51617)
MAPK11 (human) = MAPK11 (human) (UniProt Q15759)
[1] = tested on: OXSR1 (human), O95747 [T185E]
PAK6 (human) = PAK6 (human) (UniProt Q9NQU5)
PRKCG (human) = PRKCG (human) (UniProt P05129)
PTK6 (human) = PTK6 (human) (UniProt Q13882)
STK16 (human) = STK16 (human) (UniProt O75716)
STK33 (human) = STK33 (human) (UniProt Q9BYT3)
TEK (human) = TEK (human) (UniProt Q02763)
TESK1 (human) = TESK1 (human) (UniProt Q15569)
TLK1 (human) = TLK1 (human) (UniProt Q9UKI8)
TSSK1B (human) = TSSK1B (human) (UniProt Q9BXA7)
TTBK1 (human) = TTBK1 (human) (UniProt Q5TCY1)
ZAP70 (human) = ZAP70 (human) (UniProt P43403)
CDK9 CCNT1 (human) = CDK9 CCNT1 (human) (UniProt P50750+O60563)
CSNK1G2 (human) = CSNK1G2 (human) (UniProt P78368)
DDR2 (human) = DDR2 (human) (UniProt Q16832)
STK24 (human) = STK24 (human) (UniProt Q9Y6E0)
WNK1 (human) = WNK1 (human) (UniProt Q9H4A3)
Sequence of WNK1 (human) (Q9H4A3 whole entry, looked up): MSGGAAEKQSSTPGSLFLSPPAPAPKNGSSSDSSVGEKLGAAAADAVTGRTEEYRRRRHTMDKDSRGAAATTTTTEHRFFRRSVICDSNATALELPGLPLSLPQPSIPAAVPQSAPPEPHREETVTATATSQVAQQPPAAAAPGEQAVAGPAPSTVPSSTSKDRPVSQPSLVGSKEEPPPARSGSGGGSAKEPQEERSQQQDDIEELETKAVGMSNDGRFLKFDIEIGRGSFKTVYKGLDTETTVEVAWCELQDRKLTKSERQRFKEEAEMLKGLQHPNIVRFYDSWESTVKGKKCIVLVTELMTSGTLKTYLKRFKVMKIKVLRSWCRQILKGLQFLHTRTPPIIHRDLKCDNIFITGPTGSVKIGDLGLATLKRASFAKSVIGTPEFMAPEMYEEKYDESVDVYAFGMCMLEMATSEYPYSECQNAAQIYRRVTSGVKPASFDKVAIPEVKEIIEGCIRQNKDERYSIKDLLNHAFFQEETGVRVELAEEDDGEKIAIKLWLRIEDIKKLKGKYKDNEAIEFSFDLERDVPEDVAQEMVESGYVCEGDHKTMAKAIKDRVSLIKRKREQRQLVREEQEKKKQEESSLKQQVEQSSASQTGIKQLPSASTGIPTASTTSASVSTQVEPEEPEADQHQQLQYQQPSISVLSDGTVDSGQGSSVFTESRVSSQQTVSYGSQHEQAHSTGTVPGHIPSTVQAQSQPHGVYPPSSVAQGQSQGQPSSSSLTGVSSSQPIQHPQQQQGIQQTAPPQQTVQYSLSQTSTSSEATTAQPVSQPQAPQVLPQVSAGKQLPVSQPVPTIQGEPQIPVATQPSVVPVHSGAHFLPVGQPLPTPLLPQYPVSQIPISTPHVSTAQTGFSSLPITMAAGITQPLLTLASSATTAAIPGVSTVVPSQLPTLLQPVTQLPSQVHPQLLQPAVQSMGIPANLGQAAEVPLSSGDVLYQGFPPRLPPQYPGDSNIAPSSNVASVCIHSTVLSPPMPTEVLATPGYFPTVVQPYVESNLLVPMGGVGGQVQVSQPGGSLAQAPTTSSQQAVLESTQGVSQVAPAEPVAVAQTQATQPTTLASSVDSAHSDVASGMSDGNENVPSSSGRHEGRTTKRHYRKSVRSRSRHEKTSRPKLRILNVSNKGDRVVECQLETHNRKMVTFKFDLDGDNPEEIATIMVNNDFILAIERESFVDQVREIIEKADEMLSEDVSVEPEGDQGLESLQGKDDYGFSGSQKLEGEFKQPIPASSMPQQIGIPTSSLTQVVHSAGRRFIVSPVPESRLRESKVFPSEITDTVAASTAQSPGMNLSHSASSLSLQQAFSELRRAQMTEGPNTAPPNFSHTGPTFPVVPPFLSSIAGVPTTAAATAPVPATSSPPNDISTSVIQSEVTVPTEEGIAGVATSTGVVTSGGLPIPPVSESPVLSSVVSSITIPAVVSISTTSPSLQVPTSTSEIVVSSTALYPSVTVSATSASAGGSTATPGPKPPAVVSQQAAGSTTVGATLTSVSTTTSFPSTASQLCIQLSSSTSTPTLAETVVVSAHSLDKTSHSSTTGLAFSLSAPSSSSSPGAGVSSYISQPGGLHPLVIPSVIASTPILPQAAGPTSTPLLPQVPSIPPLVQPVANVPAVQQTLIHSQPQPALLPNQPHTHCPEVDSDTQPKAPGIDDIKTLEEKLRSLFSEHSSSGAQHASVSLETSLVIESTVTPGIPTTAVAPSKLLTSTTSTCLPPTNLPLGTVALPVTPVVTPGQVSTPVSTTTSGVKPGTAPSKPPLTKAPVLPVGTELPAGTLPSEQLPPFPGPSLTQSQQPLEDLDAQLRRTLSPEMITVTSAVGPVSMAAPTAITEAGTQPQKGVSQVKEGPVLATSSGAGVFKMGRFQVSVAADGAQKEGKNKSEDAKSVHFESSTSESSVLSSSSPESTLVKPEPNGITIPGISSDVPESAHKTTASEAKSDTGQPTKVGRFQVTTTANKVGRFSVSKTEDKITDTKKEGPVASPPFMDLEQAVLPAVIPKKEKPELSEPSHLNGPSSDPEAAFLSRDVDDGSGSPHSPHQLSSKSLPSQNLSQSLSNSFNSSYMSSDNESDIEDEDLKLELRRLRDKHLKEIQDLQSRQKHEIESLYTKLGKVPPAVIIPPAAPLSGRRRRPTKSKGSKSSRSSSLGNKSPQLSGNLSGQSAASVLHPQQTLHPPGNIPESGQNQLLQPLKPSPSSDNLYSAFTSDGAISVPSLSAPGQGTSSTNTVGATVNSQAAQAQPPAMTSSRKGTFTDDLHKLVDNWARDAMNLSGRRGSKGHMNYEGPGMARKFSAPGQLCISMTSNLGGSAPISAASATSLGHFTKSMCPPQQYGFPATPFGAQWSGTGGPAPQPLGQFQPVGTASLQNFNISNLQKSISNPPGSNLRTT

Sequence of EIF2AK3 (human) (Q9NZJ5 whole entry, looked up): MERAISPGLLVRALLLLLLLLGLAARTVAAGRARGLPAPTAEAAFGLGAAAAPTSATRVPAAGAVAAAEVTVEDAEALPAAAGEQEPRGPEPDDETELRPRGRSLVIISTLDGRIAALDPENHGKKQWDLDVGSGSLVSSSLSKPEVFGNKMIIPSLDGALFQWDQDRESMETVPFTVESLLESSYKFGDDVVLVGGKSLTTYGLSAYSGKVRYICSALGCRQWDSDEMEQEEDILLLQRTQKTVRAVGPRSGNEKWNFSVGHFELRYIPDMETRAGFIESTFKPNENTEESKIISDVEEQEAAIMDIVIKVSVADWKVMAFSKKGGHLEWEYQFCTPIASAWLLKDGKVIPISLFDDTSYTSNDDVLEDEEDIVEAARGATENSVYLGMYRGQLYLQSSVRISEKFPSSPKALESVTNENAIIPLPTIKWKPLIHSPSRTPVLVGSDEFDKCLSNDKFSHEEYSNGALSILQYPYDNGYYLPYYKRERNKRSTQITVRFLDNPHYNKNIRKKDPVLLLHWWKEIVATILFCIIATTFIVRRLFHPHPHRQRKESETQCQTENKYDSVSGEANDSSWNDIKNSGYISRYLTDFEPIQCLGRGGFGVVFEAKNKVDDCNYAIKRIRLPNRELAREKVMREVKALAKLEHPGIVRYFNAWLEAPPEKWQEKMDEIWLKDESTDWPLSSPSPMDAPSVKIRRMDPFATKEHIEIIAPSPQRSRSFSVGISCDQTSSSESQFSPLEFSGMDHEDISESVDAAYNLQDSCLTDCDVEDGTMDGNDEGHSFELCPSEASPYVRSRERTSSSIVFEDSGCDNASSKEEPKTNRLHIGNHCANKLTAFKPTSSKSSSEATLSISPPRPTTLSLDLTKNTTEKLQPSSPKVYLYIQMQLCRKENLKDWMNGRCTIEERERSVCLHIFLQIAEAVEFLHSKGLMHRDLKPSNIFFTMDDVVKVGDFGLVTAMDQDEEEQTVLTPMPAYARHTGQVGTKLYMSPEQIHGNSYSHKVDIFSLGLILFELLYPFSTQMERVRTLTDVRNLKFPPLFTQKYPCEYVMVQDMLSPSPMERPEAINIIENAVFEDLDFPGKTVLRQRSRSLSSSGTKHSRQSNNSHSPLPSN
Sequence of TTBK1 (human) (Q5TCY1 whole entry, looked up): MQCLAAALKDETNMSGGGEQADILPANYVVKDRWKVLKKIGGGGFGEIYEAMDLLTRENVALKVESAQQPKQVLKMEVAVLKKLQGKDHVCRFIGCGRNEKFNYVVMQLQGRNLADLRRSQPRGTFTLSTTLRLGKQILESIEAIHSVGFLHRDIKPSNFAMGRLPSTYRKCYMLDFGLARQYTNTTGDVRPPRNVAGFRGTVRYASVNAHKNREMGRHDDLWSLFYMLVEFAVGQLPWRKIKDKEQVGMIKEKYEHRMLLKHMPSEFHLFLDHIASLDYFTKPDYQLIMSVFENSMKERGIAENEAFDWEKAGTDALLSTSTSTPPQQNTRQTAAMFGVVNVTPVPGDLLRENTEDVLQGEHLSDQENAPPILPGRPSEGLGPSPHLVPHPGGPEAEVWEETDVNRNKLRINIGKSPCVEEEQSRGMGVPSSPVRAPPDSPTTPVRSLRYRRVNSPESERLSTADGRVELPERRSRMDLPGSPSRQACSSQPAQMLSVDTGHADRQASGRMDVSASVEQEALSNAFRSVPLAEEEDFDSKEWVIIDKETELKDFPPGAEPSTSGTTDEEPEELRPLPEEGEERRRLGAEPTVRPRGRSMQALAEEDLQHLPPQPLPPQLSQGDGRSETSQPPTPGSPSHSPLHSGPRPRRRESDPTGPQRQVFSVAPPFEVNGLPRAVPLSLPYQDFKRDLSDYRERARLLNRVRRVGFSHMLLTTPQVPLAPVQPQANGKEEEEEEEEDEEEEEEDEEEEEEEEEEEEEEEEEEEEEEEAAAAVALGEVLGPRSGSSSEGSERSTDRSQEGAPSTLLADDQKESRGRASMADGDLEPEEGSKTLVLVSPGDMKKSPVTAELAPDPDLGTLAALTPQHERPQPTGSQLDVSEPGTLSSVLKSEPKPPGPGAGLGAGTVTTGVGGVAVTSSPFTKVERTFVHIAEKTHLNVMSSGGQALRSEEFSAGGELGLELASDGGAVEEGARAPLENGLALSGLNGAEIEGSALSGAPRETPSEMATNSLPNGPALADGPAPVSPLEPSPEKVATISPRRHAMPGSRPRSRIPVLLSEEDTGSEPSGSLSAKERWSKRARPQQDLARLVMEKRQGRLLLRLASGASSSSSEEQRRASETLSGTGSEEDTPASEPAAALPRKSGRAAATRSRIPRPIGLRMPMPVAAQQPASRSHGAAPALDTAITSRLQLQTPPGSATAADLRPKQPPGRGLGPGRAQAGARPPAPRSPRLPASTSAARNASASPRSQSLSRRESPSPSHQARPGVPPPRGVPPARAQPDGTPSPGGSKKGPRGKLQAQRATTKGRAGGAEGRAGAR
Sequence of STK16 (human) (O75716 whole entry, looked up): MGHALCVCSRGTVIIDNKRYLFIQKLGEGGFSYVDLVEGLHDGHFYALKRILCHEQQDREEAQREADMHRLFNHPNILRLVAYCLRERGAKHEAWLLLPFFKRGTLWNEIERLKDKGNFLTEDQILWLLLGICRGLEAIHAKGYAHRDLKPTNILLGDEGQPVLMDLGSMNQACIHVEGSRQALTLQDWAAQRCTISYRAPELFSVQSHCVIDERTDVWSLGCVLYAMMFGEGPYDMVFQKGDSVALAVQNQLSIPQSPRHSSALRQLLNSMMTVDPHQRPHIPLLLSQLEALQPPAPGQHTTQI

residual activity (ABL1 (human); compound 0.1 µM): 102%
residual activity (ABL1 (human); compound 1.0 µM): 112%
residual activity (ABL1 (human); compound 10.0 µM): 100%
residual activity (EIF2AK3 (human); compound 0.1 µM): 108%
residual activity (EIF2AK3 (human); compound 1.0 µM): 101%
residual activity (EIF2AK3 (human); compound 10.0 µM): 97%
residual activity (IRAK1 (human); compound 0.1 µM): 92%
residual activity (IRAK1 (human); compound 10.0 µM): 87%
residual activity (MAPK11 (human); compound 0.1 µM): 99%
residual activity (MAPK11 (human); compound 1.0 µM): 96%
residual activity (MAPK11 (human); compound 10.0 µM): 62%
residual activity ([1]; compound 0.1 µM): 98%
residual activity ([1]; compound 1.0 µM): 104%
residual activity ([1]; compound 10.0 µM): 73%
residual activity (PAK6 (human); compound 0.1 µM): 99%
residual activity (PAK6 (human); compound 1.0 µM): 99%
residual activity (PAK6 (human); compound 10.0 µM): 81%
residual activity (PRKCG (human); compound 0.1 µM): 106%
residual activity (PRKCG (human); compound 1.0 µM): 103%
residual activity (PRKCG (human); compound 10.0 µM): 115%
residual activity (PTK6 (human); compound 0.1 µM): 114%
residual activity (PTK6 (human); compound 1.0 µM): 124%
residual activity (PTK6 (human); compound 10.0 µM): 103%
residual activity (STK16 (human); compound 0.1 µM): 100%
residual activity (STK16 (human); compound 1.0 µM): 93%
residual activity (STK16 (human); compound 10.0 µM): 84%
residual activity (STK33 (human); compound 0.1 µM): 103%
residual activity (STK33 (human); compound 10.0 µM): 66%
residual activity (TEK (human); compound 0.1 µM): 101%
residual activity (TEK (human); compound 1.0 µM): 111%
residual activity (TEK (human); compound 10.0 µM): 84%
residual activity (TESK1 (human); compound 0.1 µM): 99%
residual activity (TESK1 (human); compound 1.0 µM): 102%
residual activity (TESK1 (human); compound 10.0 µM): 93%
residual activity (TLK1 (human); compound 0.1 µM): 91%
residual activity (TLK1 (human); compound 1.0 µM): 107%
residual activity (TLK1 (human); compound 10.0 µM): 90%
residual activity (TSSK1B (human); compound 0.1 µM): 84%
residual activity (TSSK1B (human); compound 1.0 µM): 56%
residual activity (TSSK1B (human); compound 10.0 µM): 12%
residual activity (TTBK1 (human); compound 0.1 µM): 93%
residual activity (TTBK1 (human); compound 10.0 µM): 93%
residual activity (ZAP70 (human); compound 0.1 µM): 108%
residual activity (ZAP70 (human); compound 1.0 µM): 114%
residual activity (ZAP70 (human); compound 10.0 µM): 109%
Compound: NC(=O)c1cc(-c2ccnc(NC3CCCCC3)c2)nc(N2CCNCC2)c1

residual activity (CDK9 CCNT1 (human); compound 0.01 µM): 104%
residual activity (CDK9 CCNT1 (human); compound 0.1 µM): 87%
residual activity (CDK9 CCNT1 (human); compound 1.0 µM): 95%
residual activity (CSNK1G2 (human); compound 0.01 µM): 96%
residual activity (CSNK1G2 (human); compound 0.1 µM): 93%
residual activity (DDR2 (human); compound 0.01 µM): 17%
residual activity (DDR2 (human); compound 0.1 µM): 8%
residual activity (DDR2 (human); compound 1.0 µM): 6%
residual activity (EIF2AK3 (human); compound 0.01 µM): 91%
residual activity (EIF2AK3 (human); compound 0.1 µM): 97%
residual activity (EIF2AK3 (human); compound 1.0 µM): 95%
residual activity (IRAK1 (human); compound 0.01 µM): 98%
residual activity (IRAK1 (human); compound 0.1 µM): 95%
residual activity (IRAK1 (human); compound 1.0 µM): 95%
residual activity (MAPK11 (human); compound 0.01 µM): 89%
residual activity (MAPK11 (human); compound 0.1 µM): 42%
residual activity (MAPK11 (human); compound 1.0 µM): 19%
residual activity ([1]; compound 0.01 µM): 101%
residual activity ([1]; compound 0.1 µM): 93%
residual activity ([1]; compound 1.0 µM): 57%
residual activity (PAK6 (human); compound 0.01 µM): 94%
residual activity (PAK6 (human); compound 0.1 µM): 101%
residual activity (PAK6 (human); compound 1.0 µM): 88%
residual activity (PRKCG (human); compound 0.01 µM): 101%
residual activity (PRKCG (human); compound 0.1 µM): 104%
residual activity (PRKCG (human); compound 1.0 µM): 96%
residual activity (PTK6 (human); compound 0.01 µM): 97%
residual activity (PTK6 (human); compound 0.1 µM): 24%
residual activity (PTK6 (human); compound 1.0 µM): 3%
residual activity (STK16 (human); compound 0.01 µM): 106%
residual activity (STK16 (human); compound 0.1 µM): 106%
residual activity (STK16 (human); compound 1.0 µM): 106%
residual activity (STK24 (human); compound 0.01 µM): 105%
residual activity (STK24 (human); compound 1.0 µM): 40%
residual activity (STK33 (human); compound 0.01 µM): 113%
residual activity (STK33 (human); compound 0.1 µM): 106%
residual activity (STK33 (human); compound 1.0 µM): 107%
residual activity (TEK (human); compound 0.01 µM): 116%
residual activity (TEK (human); compound 0.1 µM): 82%
residual activity (TEK (human); compound 1.0 µM): 42%
residual activity (TESK1 (human); compound 0.01 µM): 82%
residual activity (TESK1 (human); compound 0.1 µM): 29%
residual activity (TESK1 (human); compound 1.0 µM): 16%
residual activity (TLK1 (human); compound 0.01 µM): 98%
residual activity (TLK1 (human); compound 0.1 µM): 93%
residual activity (TLK1 (human); compound 1.0 µM): 93%
residual activity (TSSK1B (human); compound 0.01 µM): 108%
residual activity (TSSK1B (human); compound 0.1 µM): 102%
residual activity (TSSK1B (human); compound 1.0 µM): 62%
residual activity (TTBK1 (human); compound 0.01 µM): 100%
residual activity (TTBK1 (human); compound 0.1 µM): 117%
residual activity (TTBK1 (human); compound 1.0 µM): 112%
residual activity (WNK1 (human); compound 0.01 µM): 100%
residual activity (WNK1 (human); compound 0.1 µM): 107%
residual activity (WNK1 (human); compound 1.0 µM): 102%
residual activity (ZAP70 (human); compound 0.01 µM): 96%
residual activity (ZAP70 (human); compound 0.1 µM): 98%
residual activity (ZAP70 (human); compound 1.0 µM): 94%
Compound: COc1ccc(N(C(=O)Nc2c(C)cccc2C)c2cc(Nc3ccc(N4CCN(C)CC4)cc3)ncn2)c(OC)c1
